# Reference: PubChem BioAssay (NCI)
#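 The concentration for 50% growth inhibition is given as GI50. At the TGI there is no net growth.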
# What was measured:
# Experiment in all cases: NCI anticancer screen, dose series, 384-well format
# EKVX NSCLC = tested on: EKVX NSCLC
# HCC-2998 colon = tested on: HCC-2998 colon
# MDA-MB-435 melanoma = tested on: MDA-MB-435 melanoma
# SF-539 CNS = tested on: SF-539 CNS
# A549 NSCLC = tested on: A549 NSCLC
# PC-3 prostate = tested on: PC-3 prostate
# RXF 393 renal = tested on: RXF 393 renal
# MCF7 breast = tested on: MCF7 breast
# A498 renal = tested on: A498 renal
# NCI-H322M lung = tested on: NCI-H322M lung
# K-562 leukemia = tested on: K-562 leukemia
# MDA-MB-231 breast = tested on: MDA-MB-231 breast
# IGROV1 ovarian = tested on: IGROV1 ovarian
smiles,measurement,setting,value
COCCOc1cc(F)c2c(Nc3ccc(NC(=O)Cn4cc(C(C)C)nn4)cc3)ncnc2c1,GI50,EKVX NSCLC,41 µM
same,TGI,EKVX NSCLC,> 100 µM
same,GI50,HCC-2998 colon,29.3 µM
same,TGI,HCC-2998 colon,> 100 µM
same,GI50,MDA-MB-435 melanoma,62.1 µM
same,TGI,MDA-MB-435 melanoma,> 100 µM
same,GI50,SF-539 CNS,11.6 µM
same,TGI,SF-539 CNS,> 100 µM
same,GI50,A549 NSCLC,53.2 µM
same,TGI,A549 NSCLC,> 100 µM
same,GI50,PC-3 prostate,62.9 µM
same,TGI,PC-3 prostate,> 100 µM
same,GI50,RXF 393 renal,39.8 µM
same,TGI,RXF 393 renal,> 100 µM
same,GI50,MCF7 breast,21.9 µM
same,TGI,MCF7 breast,> 100 µM
same,GI50,A498 renal,79.9 µM
same,TGI,A498 renal,> 100 µM
same,GI50,NCI-H322M lung,> 100 µM
same,TGI,NCI-H322M lung,> 100 µM
same,GI50,K-562 leukemia,3.25 µM
same,TGI,K-562 leukemia,> 100 µM
same,GI50,MDA-MB-231 breast,30.5 µM
same,TGI,MDA-MB-231 breast,> 100 µM
same,GI50,IGROV1 ovarian,53.5 µM
same,TGI,IGROV1 ovarian,> 100 µM
